The results in this text go back to ChEMBL document CHEMBL1201862, “PubChem BioAssay data set” (2004).

What all share (assay): growth of human tumour cells (NCI), 48 h
In experiment [1] the test system is DLD-1.
The subject of experiment [2] is DMS-114.
Experiment [3] relates to DMS-273.
The test system of experiment [4] is HOP-18.
For experiment [5], the system named is LXFL 529.
For experiment [6], the system named is M19-MEL.
In experiment [7] the test system is RXF 631.
The subject of experiment [8] is SNB-78.
The subject of experiment [9] is XF498.

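Each compound was tested at five concentrations against cells in 96-well plates for 48 hours. GI50 = concentration required for 50% inhibition of growth.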 Active and inactive are the calls of the source. Cut-off read from the data, not from the text of the source: active = GI50 up to about 1.1 µM and inactive = higher.

Consider `COc1cc(/C=C2/C(=O)N(C(=O)OCc3ccccc3)C(Cc3cc(OC)c(OC)c(C)c3OC)C(=O)N2Cc2ccccc2)c(OC)c(C)c1OC` (centres undefined), for which the GI50 was > 100 µM (inactive) in experiment [1]; 54.6 µM (inactive) in experiment [2]; 40.6 µM (inactive) in experiment [3]; 95.3 µM (inactive) in experiment [4]; 9.42 µM (inactive) in [5]; 69.7 µM (inactive) in experiment [6]. Further, the GI50 in experiment [7] was > 100 µM (inactive).
For `CS/C(=N/C(=O)c1ccccc1)SCCS/C(=N\C(=O)c1ccccc1)SC`, the GI50 in experiment [1] was > 100 µM (inactive); in [2], 90.4 µM (inactive); in [3], > 100 µM (inactive); in [5], > 100 µM (inactive); in experiment [6] it was > 100 µM (inactive); in [7], > 100 µM (inactive). In addition, the values for the GI50 in [8] and in [9] were 66.8 µM (inactive) and > 100 µM (inactive), respectively.
For the molecule `C=CCNC(=O)ON1C(=O)CCC1=O`, the GI50 in [1], in [2], in experiment [3], in experiment [4], in [5] and in experiment [6] was > 100 µM (inactive) throughout. Further, in [8], the GI50 is > 100 µM (inactive).
Regarding `COc1ccc(C(=O)O/N=C2/CCC/C2=C\c2ccccc2)cc1`, the GI50 in experiment [1], in experiment [2], in experiment [3], in experiment [4], in [5] and in experiment [6] was > 100 µM (inactive) throughout. For the same molecule, the GI50 in [7] was > 100 µM (inactive); in experiment [8], > 68.5 µM (inactive); in experiment [9], > 100 µM (inactive).
As for `CCOC(=O)/C(=C\c1ccc(O)c(OC)c1)C(=O)c1ccccc1`, the GI50 was 17.8 µM (inactive) in experiment [1]; 38.9 µM (inactive) in experiment [4]; 10.6 µM (inactive) in [5]; 20.8 µM (inactive) in [6]; 2.56 µM (inactive) in [8]; 27.6 µM (inactive) in [9].
For `O=C1CCCCC1CN1CCCC1` (centres undefined), the GI50 in experiment [1], in experiment [2], in [3], in experiment [5], in [6] and in [8] was > 100 µM (inactive) each time. Further, in experiment [9], the GI50 was > 100 µM (inactive).
Consider `CC(=O)O[C@H]1CCC2[C@@H]3CCC4C(=O)c5oncc5C[C@]4(C)C3CC[C@@]21C` (some centres undefined), for which the GI50 in [1] is > 100 µM (inactive); in experiment [2], > 100 µM (inactive); in [3], > 100 µM (inactive); in experiment [5] it was > 100 µM (inactive); in experiment [6], > 100 µM (inactive); in experiment [8] it was 49 µM (inactive). The GI50 in experiment [9] was > 100 µM (inactive).
With `OCCCc1cnco1`, the GI50 in [1], in experiment [3], in experiment [4], in [5], in [6] and in experiment [8] was > 100 µM (inactive) throughout. Besides, the GI50 in experiment [9] is > 100 µM (inactive).
`COC(=O)C1=C(SC)SC2(C(=O)OC)C3C=C(C)C4C(N13)C42C(=O)OC` (centres undefined): the GI50 in [1], in experiment [2], in experiment [3], in experiment [5] and in experiment [6] was > 100 µM (inactive) each time.
For `COC1=CC(O)(CC(N)=O)c2ccccc2C1=O` (centres undefined), the GI50 in experiment [1], in experiment [2], in experiment [3], in experiment [4], in experiment [5] and in experiment [6] was > 100 µM (inactive) each time. The GI50 in experiment [7], in experiment [8] and in [9] was > 100 µM (inactive) each time.
As for `C=C(CCCO)[C@@H]1CC[C@@](C)(O)[C@H]1C`, the GI50 in [1] was > 10 µM (inactive); in experiment [2] it was > 100 µM (inactive); in [3] it was > 100 µM (inactive); in experiment [4], > 100 µM (inactive); in experiment [5] it was > 100 µM (inactive); in [6], > 100 µM (inactive). In addition, the GI50 in [7], in experiment [8] and in experiment [9] was > 100 µM (inactive) in each case.
Take `CC(=O)NC(CCCCNC(=O)OCc1ccccc1)C(=O)NCc1ccccc1` (centres undefined): the GI50 in [1] is > 100 µM (inactive); in experiment [2] it was > 100 µM (inactive); in experiment [3] it was > 100 µM (inactive); in experiment [5] it was > 100 µM (inactive); in experiment [6], > 100 µM (inactive); in experiment [8], 88.9 µM (inactive). In addition, the GI50 in [9] was > 100 µM (inactive).
Regarding `COc1cc2c(cc1OC)C(C#N)(Cc1ccccc1)N(C(=O)c1ccccc1)C=C2` (centres undefined), the GI50 in [2] was 17.6 µM (inactive); in experiment [3], 60.7 µM (inactive); in experiment [4], > 100 µM (inactive); in experiment [5], 39.4 µM (inactive); in [6], 96.6 µM (inactive); in experiment [7], 45.3 µM (inactive). Further, the GI50 was > 100 µM (inactive) in experiment [8] and 8.15 µM (inactive) in experiment [9].
With `O=C1O/C(=C(/c2ccc(Cl)cc2)c2nc3ccccc3[nH]2)C(O)=C1c1ccc(Cl)cc1`, the GI50 is 3.05 µM (inactive) in experiment [1]; 1.24 µM (inactive) in [2]; 2.08 µM (inactive) in experiment [3]; 2.09 µM (inactive) in experiment [4]; 2.65 µM (inactive) in experiment [5]; 0.891 µM (active) in experiment [7]. The GI50 in experiment [8] is 4 µM (inactive).
For the molecule `O=C(Cc1nc2ccccc2o1)C(=O)Nc1ccc(Cl)cc1Cl`, the GI50 in [1], in [2], in experiment [3], in experiment [4], in experiment [5] and in experiment [6] was > 100 µM (inactive) each time. Moreover, in [8], the GI50 is > 100 µM (inactive).
As for `Nc1ccc(C(=O)NN2C(=O)C(Cl)C2c2ccccc2)cc1` (centres undefined), the GI50 in experiment [1], in experiment [2], in experiment [3], in experiment [5], in experiment [6] and in [8] was > 100 µM (inactive) throughout. The GI50 in [9] was > 100 µM (inactive).
For the molecule `O=Cc1cc2c(s1)C(=O)c1sccc1C2=O`, the GI50 in [1] was 0.351 µM (active); in [2], 0.188 µM (active); in experiment [3] it was 0.168 µM (active); in experiment [4], 0.183 µM (active); in [5], 0.2 µM (active); in experiment [6], 0.0237 µM (active). Besides, the values for the GI50 in [8] and in experiment [9] were 1.41 µM (inactive) and 1.26 µM (inactive), respectively.
With `O=C(c1ccccc1)[C@@H]1C[C@H](Sc2ccccc2)c2cc(Cl)ccc2N1`, the GI50 is 23.4 µM (inactive) in experiment [1]; 21.1 µM (inactive) in experiment [2]; 24 µM (inactive) in experiment [3]; > 100 µM (inactive) in experiment [4]; 24 µM (inactive) in experiment [5]; 30.1 µM (inactive) in [6]. Also, the GI50 in experiment [7] was 28.1 µM (inactive); in [8], 36.9 µM (inactive); in experiment [9], 18.9 µM (inactive).
Consider `CC1(C)C(=O)/C=C\C(=O)C(C)(C)C2=CC=C(O2)C(C)(C)C(=O)C(Br)C(Br)C(=O)C(C)(C)C2=CC=C1O2` (centres undefined), for which the GI50 in [1] is 13.6 µM (inactive); in experiment [2] it was > 31.6 µM (inactive); in experiment [3], 33.3 µM (inactive); in [4] it was > 100 µM (inactive); in experiment [5], 27.9 µM (inactive); in experiment [6], 53.7 µM (inactive). For the same molecule, the GI50 in experiment [7] is > 100 µM (inactive); in experiment [8] it was 41.8 µM (inactive); in experiment [9], > 67.5 µM (inactive).
As for `CCOC(=O)Nc1ccc(S(=O)(=O)I)cc1.CCOC(=O)Nc1ccc(S(=O)(=O)I)cc1.CNC(=O)N=O.NC(=O)OCCCl`, the GI50 in experiment [1], in experiment [2], in [5], in [7], in experiment [8] and in experiment [9] was > 100 µM (inactive) each time.
As to `C/C(C=O)=C1\C(O)C[C@]1(C)C1CC(C)(C)CC1O` (some centres undefined), the GI50 in experiment [1] is > 100 µM (inactive); in experiment [2] it was 39.1 µM (inactive); in [3], > 100 µM (inactive); in experiment [5] it was 57.1 µM (inactive); in experiment [6], > 100 µM (inactive); in experiment [8], > 100 µM (inactive).
In the case of `CN(C)c1ccc(N=O)c(O)c1.CN(C)c1ccc(N=O)c(O)c1.[SiH4]`, the GI50 in experiment [1] is 8.28 µM (inactive); in experiment [2], 3.72 µM (inactive); in experiment [4] it was 12.1 µM (inactive); in experiment [5] it was 5.64 µM (inactive); in [6] it was 5.56 µM (inactive); in experiment [9] it was 9.4 µM (inactive).
Take `Oc1ncc(N(CCCl)CCCl)c(O)n1` [URACIL MUSTARD]: the GI50 in experiment [1] is 78.3 µM (inactive); in experiment [2], 14 µM (inactive); in experiment [3], 4.55 µM (inactive); in experiment [4] it was 51.6 µM (inactive); in experiment [5], 71.4 µM (inactive); in experiment [6], 63.2 µM (inactive). Besides, the GI50 in [8] was 79.6 µM (inactive); in experiment [9] it was 23 µM (inactive).
